US7906498B2, “Cholesterol as an antibiotic for Streptococcus pneumoniae” (priority 2005, dated 2011)

Key:
[1] = system: encapsulated S. pneumoniae; assay: Bacterial load in infected rabbit corneas; assay type: in vivo, Streptococcus pneumoniae; settings: topical application
Experimental: Sacrifice of the rabbits occurred immediately following the last SLE time (48 hours post-infection) to avoid unnecessary pain. Corneas were harvested for bacterial quantification or for histopathologic analysis. […] Bacterial loads were determined for control corneas (treated with 20% glycerol only) and corneas treated with the topical cholesterol (1% in 20% glycerol). The bacterial load in the control corneas ranged from 2.48 to 6.60 log colony-forming units, while in the treated corneas the load was 3.68 to 6.59 log colony-forming units.

[2] = Test whether cholesterol independently causes inflammation in rabbit corneas (topical drops or intrastromal injection); assay type: in vivo; settings: one cornea, examined up to 48 hours post-injection
Experimental: The applications were 30 minutes apart for the first hour, and the remaining applications were 1 hour apart. The corneas were examined periodically for several days. […] The possible effect of cholesterol injected into the corneal stroma was also examined. […] The corneas were examined every 2 hours for the first 8 hours, and then at 24, 30, and 48 hours post-injection.

[3] = system: S. pneumoniae strains Avery's, R6, and TIGR4; assay: In vitro incubation of log-phase S. pneumoniae with cholesterol (optical density, plating); assay type: cell-based, Streptococcus pneumoniae; settings: 3 hours
Experimental: To determine if cholesterol is bactericidal, log-phase S. pneumoniae were incubated with cholesterol. Three S. pneumoniae strains, Avery's, R6, and TIGR4, were diluted from overnight cultures and grown to log phase (A600=0.3). These bacteria were then incubated with 1% cholesterol in 20% glycerol, 20% glycerol alone, or PBS. The optical density of each strain was determined once per hour for 3 hours, and bacterial loads were determined by plating dilutions of the bacteria onto chocolate agar. […] While cholesterol prevented growth in vitro (outside the cornea), cholesterol had no effect on bacterial growth in the cornea. (See above). Topical application of cholesterol could be used to decrease the numbers of S. pneumoniae on the outside surface of the cornea, and inhibit bacterial infiltration of the corneal surface.

Staphylococcus aureus = assay: Rabbit Staphylococcus aureus keratitis treated with cholesterol; assay type: in vivo; settings: cholesterol 1% in 20% glycerol
alpha-toxin = alpha-toxin (Staphylococcus aureus, UniProt P09616); settings: in vivo
Sequence of alpha-toxin (P09616 27-319 limits assumed): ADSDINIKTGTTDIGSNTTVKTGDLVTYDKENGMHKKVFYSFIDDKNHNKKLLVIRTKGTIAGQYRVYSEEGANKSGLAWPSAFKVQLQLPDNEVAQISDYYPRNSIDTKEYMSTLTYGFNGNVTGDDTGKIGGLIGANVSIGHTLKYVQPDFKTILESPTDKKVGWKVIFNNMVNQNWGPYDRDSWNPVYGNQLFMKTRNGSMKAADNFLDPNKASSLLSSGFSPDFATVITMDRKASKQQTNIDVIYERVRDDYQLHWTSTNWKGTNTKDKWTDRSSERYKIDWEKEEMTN

[4] = system: encapsulated S. pneumoniae; assay: Rabbit S. pneumoniae keratitis, slit lamp examination (SLE) score; settings: topical 1% cholesterol in 20% glycerol, 20 and 24 hours post-infection

## CC(C)CCC[C@@H](C)[C@H]1CC[C@H]2[C@@H]3CC=C4C[C@@H](O)CC[C@]4(C)[C@H]3CC[C@]12C [cholesterol]
[1]
  bactericidal effect on bacteria once inside the cornea: does not have a bactericidal effect
[2]; […]
  inflammation or adverse effect after injection into corneal stroma: No inflammation or adverse effect was observed
[2]; injection of 0.5% cholesterol in 10% glycerol
  inflammation or adverse effect after injection into corneal stroma: No inflammation or adverse effect was observed
[3]; strain Avery's, 1% cholesterol in 20% glycerol
  effect on bacterial growth in vitro: prevented the growth
[3]; strain R6, 1% cholesterol in 20% glycerol
  effect on bacterial growth in vitro: prevented the growth
Staphylococcus aureus
  inhibition of damaging effects in S. aureus-infected corneas: ineffective
alpha-toxin
  reduction of pathology associated with alpha-toxin: ineffective
[4]
  corneal severity (SLE), treated versus untreated corneas: essentially the same
